Reference: patent US9273057B2 (Bristol-Myers Squibb Company, priority 2012, dated 2016)

Biological target: CK2A1 (CK2α/β) (Homo sapiens, UniProt P68400)
Assay: CK2 kinase assay, CK2A1 (CK2α/β)
Type: biochemical
Settings: Table A; read-out: CK2A1 (CK2α/β) (IC50)

Chain of CK2A1 (CK2α/β) (P68400 whole entry, species assumed): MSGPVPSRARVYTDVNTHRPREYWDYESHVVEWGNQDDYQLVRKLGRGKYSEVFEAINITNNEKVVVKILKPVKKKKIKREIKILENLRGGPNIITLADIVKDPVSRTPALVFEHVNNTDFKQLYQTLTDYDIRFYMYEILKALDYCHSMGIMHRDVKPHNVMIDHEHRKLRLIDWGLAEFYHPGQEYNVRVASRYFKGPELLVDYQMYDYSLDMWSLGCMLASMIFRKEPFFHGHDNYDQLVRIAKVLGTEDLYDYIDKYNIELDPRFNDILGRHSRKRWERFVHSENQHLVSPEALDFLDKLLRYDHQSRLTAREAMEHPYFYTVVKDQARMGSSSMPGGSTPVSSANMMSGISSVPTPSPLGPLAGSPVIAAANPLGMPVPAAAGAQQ
Chain of CK2A1 (CK2α/β) (P67870 whole entry partner, species assumed): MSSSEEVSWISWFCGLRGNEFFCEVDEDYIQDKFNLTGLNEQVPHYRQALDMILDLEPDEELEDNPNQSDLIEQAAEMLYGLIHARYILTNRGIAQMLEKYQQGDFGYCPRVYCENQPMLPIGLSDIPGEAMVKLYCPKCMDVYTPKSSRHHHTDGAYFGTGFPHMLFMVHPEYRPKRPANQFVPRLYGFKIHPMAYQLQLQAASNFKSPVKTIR

| Compound | IC50 [nM] |
| --- | --- |
| N#Cc1cc(Nc2nc(NC3CC3)c3ncc(C#N)n3n2)c(Cl)c(N2CCN(C3(CO)COC3)CC2)c1 [Example 538, 2-((2-chloro-5-cyano-3-(4-(3-(hydroxymethyl)oxetan-3-yl)piperazin-1-yl)phenyl)amino)-4-(cyclopropylamino)imidazo[2,1-f][1,2,4]triazine-7-carbonitrile] | 2.1 |
| COC(=O)N[C@H]1CCN(c2cc(C#N)cc(Nc3nc(NC4CC4)c4ncc(C#N)n4n3)c2Cl)C[C@@H]1OC(=O)CN [Example 193, (3S,4S)-1-(2-chloro-5-cyano-3-((7-cyano-4-(cyclopropylamino)imidazo[2,1-f][1,2,4]triazin-2-yl)amino)phenyl)-4-((methoxycarbonyl)amino)-3-piperidinyl glycinate] | 6 |
| COC(=O)N[C@@H]1CCN(c2cc(C#N)cc(Nc3nc(NC4CC4)c4ncc(C#N)n4n3)c2Cl)C[C@H]1OC(=O)[C@H](C)N [Example 195, (3R,4R)-1-(2-chloro-5-cyano-3-((7-cyano-4-(cyclopropylamino)imidazo[2,1-f][1,2,4]triazin-2-yl)amino)phenyl)-4-((methoxycarbonyl)amino)-3-piperidinyl L-alaninate] | 0.5 |
| N#Cc1cnc2c(NC3CC3)nc(Nc3cc(C(F)F)cc(N4CCC(C(=O)O)CC4)c3Cl)nn12 [Example 545, 1-(2-chloro-3-((7-cyano-4-(cyclopropylamino)imidazo[2,1-f][1,2,4]triazin-2-yl)amino)-5-(difluoromethyl)phenyl)piperidine-4-carboxylic acid] | 1.55 |
| CCNc1nc(Nc2cc(NC(=O)OC)cc(N3CCN(C)CC3)c2F)nn2c(C#N)cnc12 [Example 386, methyl (3-((7-cyano-4-(ethylamino)imidazo[2,1-f][1,2,4]triazin-2-yl)amino)-4-fluoro-5-(4-methylpiperazin-1-yl)phenyl)carbamate] | 5.79 |
| N#Cc1cc(Nc2nc(NC3CC3)c3ncc(C#N)n3n2)c(Cl)c(C2CCN(C3CN(C(=O)C(F)(F)F)C3)CC2)c1 [Example 638, 2-((2-chloro-5-cyano-3-(1-(1-(2,2,2-trifluoroacetyl)azetidin-3-yl)piperidin-4-yl)phenyl)amino)-4-(cyclopropylamino)imidazo[2,1-f][1,2,4]triazine-7-carbonitrile] | 0.8 |
| N#Cc1cc(Nc2nc(NC3CC3)c3ncc(C#N)n3n2)c(Cl)c(C2CCN(C3CNC3)CC2)c1 [Example 318, 2-((3-(1-(azetidin-3-yl)piperidin-4-yl)-2-chloro-5-cyanophenyl)amino)-4-(cyclopropylamino)imidazo[2,1-f][1,2,4]triazine-7-carbonitrile] | 0.78 |
| N#Cc1cnc2c(NC3CC3)nc(Nc3cc(C(F)F)cc(N4CC(NCC(O)CO)C4)c3Cl)nn12 (racemic) [Example 261, (+/−) 2-((2-chloro-5-(difluoromethyl)-3-(3-((2,3-dihydroxypropyl)amino)-1-azetidinyl)phenyl)amino)-4-(cyclopropylamino)imidazo[2,1-f][1,2,4]triazine-7-carbonitrile] | 2.44 |
| N#Cc1cc(CN2CCNCC(O)C2)c(Cl)c(Nc2nc(NC3CC3)c3ncc(C#N)n3n2)c1 (stereo not drawn) [Example 669, 2-((2-chloro-5-cyano-3-((6-hydroxy-1,4-diazepan-1-yl)methyl)phenyl)amino)-4-(cyclopropylamino)imidazo[2,1-f][1,2,4]triazine-7-carbonitrile] | 0.52 |
| N#Cc1cnc2c(NC3CC3)nc(Nc3cc(C(F)F)cc(N4CCC(C(=O)NC5COC5)CC4)c3Cl)nn12 [Example 547, 1-(2-chloro-3-((7-cyano-4-(cyclopropylamino)imidazo[2,1-f][1,2,4]triazin-2-yl)amino)-5-(difluoromethyl)phenyl)-N-(oxetan-3-yl)piperidine-4-carboxamide] | 2.3 |
| N#Cc1cc(Nc2nc(NC3CC3)c3ncc(C#N)n3n2)c(Cl)c(N2CCC3(CC2)CN(Cc2ccc[nH]c2=O)C3)c1 [Example 805, 2-((2-chloro-5-cyano-3-(2-((2-oxo-1,2-dihydropyridin-3-yl)methyl)-2,7-diazaspiro[3.5]nonan-7-yl)phenyl)amino)-4-(cyclopropylamino)imidazo[2,1-f][1,2,4]triazine-7-carbonitrile] | 5.35 |
| CC(=O)N1CCN(CC(O)c2cc(C#N)cc(Nc3nc(NC4CC4)c4ncc(C#N)n4n3)c2Cl)CC1 (stereo not drawn) [Example 689, 2-((3-(2-(4-acetylpiperazin-1-yl)-1-hydroxyethyl)-2-chloro-5-cyanophenyl)amino)-4-(cyclopropylamino)imidazo[2,1-f][1,2,4]triazine-7-carbonitrile] | 1 |
| N#Cc1cc(Nc2nc(NC3CC3)c3ncc(C#N)n3n2)c(Cl)c(C2CCN(CC(O)CF)CC2)c1 (racemic) [Example 380, (+/−)-2-((2-chloro-5-cyano-3-(1-(3-fluoro-2-hydroxypropyl)-4-piperidinyl)phenyl)amino)-4-(cyclopropylamino)imidazo[2,1-f][1,2,4]triazine-7-carbonitrile] | 0.65 |
| CC(C)(C)[C@@H](N)C(=O)N1CC(N2CCN(c3cc(C#N)cc(Nc4nc(NC5CC5)c5ncc(C#N)n5n4)c3Cl)CC2)C1 [Example 502, 2-{[3-(4-{1-[(2R)-2-amino-3,3-dimethylbutanoyl]azetidin-3-yl}piperazin-1-yl)-2-chloro-5-cyanophenyl]amino}-4-(cyclopropylamino)imidazo[2,1-f][1,2,4]triazine-7-carbonitrile] | 3.27 |
| CCNc1nc(Nc2cc(C#N)cc(N3CC[C@@H](NC(=O)OC)C(=O)C3)c2Cl)nn2c(C#N)cnc12 [Example 740, (R)-methyl (1-(2-chloro-5-cyano-3-((7-cyano-4-(ethylamino)imidazo[2,1-f][1,2,4]triazin-2-yl)amino)phenyl)-3-oxopiperidin-4-yl)carbamate] | 1.74 |
| N#Cc1cnc2c(NC3CC3)nc(Nc3cc(C(F)F)cc(NCC(O)CO)c3Cl)nn12 (stereo not drawn) [Example 254, 2-((2-chloro-5-(difluoromethyl)-3-((2,3-dihydroxypropyl)amino)phenyl)amino)-4-(cyclopropylamino)imidazo[2,1-f][1,2,4]triazine-7-carbonitrile] | 0.68 |
| CCNc1nc(Nc2cc(C#N)cc(N3CC[C@@H](NC[C@H](C)O)[C@H](O)C3)c2Cl)nn2c(C#N)cnc12 [Example 377, 2-((2-chloro-5-cyano-3-((3R,4R)-3-hydroxy-4-(((S)-2-hydroxypropyl)amino)piperidin-1-yl)phenyl)amino)-4-(ethylamino)imidazo[2,1-f][1,2,4]triazine-7-carbonitrile] | 0.61 |
| N#Cc1cc(Nc2nc(NC3CC3)c3ncc(C#N)n3n2)c(Cl)c(N2CCN(CC3CCCO3)CC2)c1 (stereo not drawn) [Example 531, 2-((2-chloro-5-cyano-3-(4-((tetrahydrofuran-2-yl)methyl)piperazin-1-yl)phenyl)amino)-4-(cyclopropylamino)imidazo[2,1-f][1,2,4]triazine-7-carbonitrile] | 0.44 |
| CC(=O)N1CCC2CN(c3cc(C#N)cc(Nc4nc(NC5CC5)c5ncc(C#N)n5n4)c3Cl)CCC21 (stereo not drawn) [Example 446, 2-((3-(1-acetylhexahydro-1H-pyrrolo[3,2-c]pyridin-5(6H)-yl)-2-chloro-5-cyanophenyl)amino)-4-(cyclopropylamino)imidazo[2,1-f][1,2,4]triazine-7-carbonitrile] | 3.48 |
| CCC(C)(O)CC(=O)N1CC(N2CCN(c3cc(C#N)cc(Nc4nc(NC5CC5)c5ncc(C#N)n5n4)c3Cl)CC2)C1 (stereo not drawn) [Example 508, 2-[(2-chloro-5-cyano-3-{4-[1-(3-hydroxy-3-methylpentanoyl)azetidin-3-yl]piperazin-1-yl}phenyl)amino]-4-(cyclopropylamino)imidazo[2,1-f][1,2,4]triazine-7-carbonitrile] | 4.73 |
| N#Cc1cc(Nc2nc(NC3CC3)c3ncc(C#N)n3n2)c(Cl)c(N2CCN(C3CN(C(=O)C4(O)CC4)C3)CC2)c1 [Example 481, 2-[(2-chloro-5-cyano-3-{4-[1-(1-hydroxycyclopropane-carbonyl)azetidin-3-yl]piperazin-1-yl}phenyl)amino]-4-(cyclopropylamino)imidazo[2,1-f][1,2,4]triazine-7-carbonitrile] | 0.93 |
| N#Cc1cc(Nc2nc(NC3CC3)c3ncc(C#N)n3n2)c(Cl)c(N2CCC(N[C@@H]3CCCC[C@@H]3F)CC2)c1 (racemic) [Example 127, (+/−) 2-(2-chloro-5-cyano-3-(4-((1R,2R)-2-fluorocyclohexylamino)piperidin-1-yl)phenylamino)-4-(cyclopropylamino)imidazo [1,2-f][1,2,4]triazine-7-carbonitrile] | 0.62 |
| CS(=O)(=O)CC(=O)N1CCN(c2cc(C#N)cc(Nc3nc(NC4CC4)c4ncc(C#N)n4n3)c2Cl)CC1 [Example 89, 2-((2-chloro-5-cyano-3-(4-((methylsulfonyl)acetyl)-1-piperazinyl)phenyl)amino)-4-(cyclopropylamino) imidazo[2,1-f][1,2,4] triazine-7-carbonitrile] | 2.9 |
| CN(CCNC1COC1)c1cc(C#N)cc(Nc2nc(NC3CC3)c3ncc(C#N)n3n2)c1Cl [Example 51, 2-((2-chloro-5-cyano-3-(methyl(2-(3-oxetanylamino)ethyl)amino)phenyl)amino)-4-(cyclopropylamino)imidazo [2,1-f][1,2,4]triazine-7-carbonitrile] | 2.47 |
| CC(CCNCCC(F)(F)F)c1cc(C#N)cc(Nc2nc(NC3CC3)c3ncc(C#N)n3n2)c1Cl (stereo not drawn) [Example 576, 2-((2-chloro-5-cyano-3-(4-((3,3,3-trifluoropropyl)amino)butan-2-yl)phenyl)amino)-4-(cyclopropylamino)imidazo[2,1-f][1,2,4]triazine-7-carbonitrile] | 1.59 |
| CCNc1nc(Nc2cc(C#N)cc(N3CC[C@H]4NC(=O)CO[C@@H]4C3)c2Cl)nn2c(C#N)cnc12 (racemic) [Example 370, (+/−)-2-((2-chloro-5-cyano-3-((4aR,8aR)-2-oxohexahydro-1H-pyrido[3,4-b][1,4]oxazin-6(7H)-yl)phenyl)amino)-4-(ethylamino)imidazo[2,1-f][1,2,4]triazine-7-carbonitrile] | 0.35 |
| N#Cc1cc(Nc2nc(NC3CC3)c3ncc(C#N)n3n2)c(F)c(C2CCN(C3COC3)CC2)c1 [Example 384, 2-((5-cyano-2-fluoro-3-(1-(oxetan-3-yl)piperidin-4-yl)phenyl)amino)-4-(cyclopropylamino)imidazo[2,1-f][1,2,4]triazine-7-carbonitrile] | 0.43 |
